Read-outs that look alike come from different tables or passages of the source.
Legend:
Format in all cases: cell-based
[1] = test system: Unconfirmed Vancomycin-intermediate Staphylococcus epidermidis Isolates; assay: MIC assay (NCCLS broth dilution), unconfirmed VISE isolates; details: for MIC: read-out: Minimal Inhibitory Concentration
Description: (§1) Antibiotics: novobiocin, tetracycline, minocycline, oxacillin, and vancomycin were all purchased from Sigma-Aldrich. Linezolid was obtained from Pfizer, Inc. Novobiocin/tetracycline and novobiocin/minocycline were tested in a 2.5:1 ratio to mimic the serum levels. (Vavra, J. J., 1967, Development of resistance to novobiocin, tetracycline, and novobiocin-tetracycline combinations in Staphylococcus aureus populations, J. Bacteriol 93(3):801). Compounds were tested across a concentration range consisting of 11 two-fold serial dilutions of test agent.
(§2) Stock solutions were prepared in sterile deionized water; novobiocin stock concentration was 1600 μg/mL and all other drugs stock solutions were prepared at 640 μg/mL. The stock solutions were allowed to sit at room temperature for one hour to auto-sterilize prior to use in the test. All compounds were in solution in water. The control agent was vancomycin hydrochloride, Sigma Chemical Lot # 015K0825.
(§3) The test organisms for the assay were 52 MSSA, 52 MRSA, 8 VISA, 7 VISE, and 3 LRSA isolates. Quality control strains included Staphylococcus aureus 0100 (ATCC 29213) and Enterococcus faecalis (ATCC 29212).
(§4) The MIC assay was performed according to published NCCLS guidelines. (National Committee for Clinical Laboratory Standards, Methods for Dilution Antimicrobial Susceptibility Tests for Bacteria that Grow Aerobically; Approved Standard-Sixth Edition, NCCLS Document M7-A6 [ISBN 1-56238-486-4], NCCLS, 940 West Valley Road, Suite 1400, Wayne, Pa. 19087-1898 USA, 2003). The test medium was Mueller Hinton II Broth for all organisms.

[2] = test system: Linezolid-Resistant Staphylococcus aureus Isolates; assay: MIC assay (NCCLS broth dilution), LRSA isolates; details: for MIC: read-out: Minimal Inhibitory Concentration
Description: as §1, §2, §3, §4

[3] = test system: Vancomycin-intermediate Staphylococcus epidermidis Isolates; assay: MIC assay (NCCLS broth dilution), VISE isolates; details: for MIC: read-out: Minimal Inhibitory Concentration
Description: as §1, §2, §3, §4

[4] = test system: Methicillin-Susceptible Staphylococcus aureus Isolates; assay: MIC assay (NCCLS broth dilution), MSSA clinical isolates; details: for MIC: Staphylococcus aureus, read-out: Minimal Inhibitory Concentration
Description: as §1, §2, §3, §4

CO[C@@H]1[C@@H](OC(N)=O)[C@@H](O)[C@H](Oc2ccc3c(O)c(NC(=O)c4ccc(O)c(CC=C(C)C)c4)c(=O)oc3c2C)OC1(C)C [NB, novobiocin]
≤ 0.04 µg/mL: MIC ([1]; Staphylococcus epidermidis, Unconfirmed VISE isolate 2026, 03MAR06) | MIC ([3]; Staphylococcus epidermidis, VISE isolate 2021, 09MAR06) | MIC ([3]; Staphylococcus epidermidis, VISE isolate 2022, 03MAR06) | MIC50 ([3]; Staphylococcus epidermidis, 4 VISE isolates, combinations at 2.5:1)
0.15 µg/mL: MIC Range ([2]; 3 LRSA isolates, combinations at 2.5:1) | MIC ([2]; Staphylococcus aureus, LRSA isolate 1651, 24FEB06) | MIC ([2]; Staphylococcus aureus, LRSA isolate 1652, 24FEB06) | MIC ([2]; Staphylococcus aureus, LRSA isolate 1725, 24FEB06) | MIC50 ([2]; Staphylococcus aureus, 3 LRSA isolates, combinations at 2.5:1) | MIC ([4]; MSSA isolate 133, 03MAR06) | MIC ([4]; MSSA isolate 756, 03MAR06) | MIC ([4]; MSSA isolate 781, 03MAR06) | MIC ([4]; MSSA isolate 782, 22FEB06) | MIC ([4]; MSSA isolate 785, 22FEB06) | MIC ([4]; MSSA isolate 786, 22FEB06) | MIC ([4]; MSSA isolate 787, 22FEB06) | MIC ([4]; MSSA isolate 788, 22FEB06) | MIC ([4]; MSSA isolate 791, 24FEB06) | MIC ([4]; MSSA isolate 792, 03MAR06) | MIC ([4]; MSSA isolate 994, 22FEB06) | MIC ([4]; MSSA isolate 999, 22FEB06) | MIC ([4]; MSSA isolate 1000, 24FEB06) | MIC ([4]; MSSA isolate 1002, 24FEB06) | MIC ([4]; MSSA isolate 1009, 24FEB06) | MIC ([4]; MSSA isolate 1131, 24FEB06) | MIC ([4]; MSSA isolate 1132, 03MAR06) | MIC ([4]; MSSA isolate 1133, 24FEB06) | MIC ([4]; MSSA isolate 1656, 03MAR06) | MIC ([4]; MSSA isolate 1662, 03MAR06) | MIC ([4]; MSSA isolate 1663, 03MAR06)
0.312 µg/mL: MIC ([1]; Staphylococcus epidermidis, Unconfirmed VISE isolate 2025, 09MAR06) | MIC50 ([1]; Staphylococcus epidermidis, 3 unconfirmed VISE isolates, combinations at 2.5:1)
≦.04-.08 μg/ml: MIC Range ([3]; 4 VISE isolates, combinations at 2.5:1)
< 0.04 µg/mL: MIC ([3]; Staphylococcus epidermidis, VISE isolate 2023, 03MAR06)
≦.04-5 μg/ml: MIC Range ([1]; 3 unconfirmed VISE isolates, combinations at 2.5:1)
.08 to 10 µg/mL: MIC Range ([4]; 52 MSSA isolates, Mueller Hinton II Broth, combinations at 2.5:1, given as NB/partner)
0.31 µg/mL: MIC ([4]; MSSA isolate 135, 03MAR06) | MIC ([4]; MSSA isolate 753, 22FEB06) | MIC ([4]; MSSA isolate 754, 22FEB06) | MIC ([4]; MSSA isolate 754, 24FEB06) | MIC ([4]; MSSA isolate 755, 22FEB06) | MIC ([4]; MSSA isolate 779, 22FEB06) | MIC ([4]; MSSA isolate 780, 03MAR06) | MIC ([4]; MSSA isolate 783, 22FEB06) | MIC ([4]; MSSA isolate 784, 22FEB06) | MIC ([4]; MSSA isolate 789, 24FEB06) | MIC ([4]; MSSA isolate 790, 24FEB06) | MIC ([4]; MSSA isolate 793, 24FEB06) | MIC ([4]; MSSA isolate 794, 24FEB06) | MIC ([4]; MSSA isolate 995, 03MAR06) | MIC ([4]; MSSA isolate 996, 22FEB06) | MIC ([4]; MSSA isolate 997, 22FEB06) | MIC ([4]; MSSA isolate 998, 03MAR06) | MIC ([4]; MSSA isolate 1001, 24FEB06) | MIC ([4]; MSSA isolate 1006, 24FEB06) | MIC ([4]; MSSA isolate 1007, 24FEB06) | MIC ([4]; MSSA isolate 1134, 24FEB06) | MIC ([4]; MSSA isolate 1654, 03MAR06)
5 µg/mL: MIC ([1]; Staphylococcus epidermidis, Unconfirmed VISE isolate 2024, 09MAR06)
0.08 µg/mL: MIC ([3]; Staphylococcus epidermidis, VISE isolate 2020, 09MAR06) | MIC ([4]; MSSA isolate 134, 03MAR06) | MIC ([4]; MSSA isolate 1003, 03MAR06) | MIC ([4]; MSSA isolate 1005, 24FEB06)
0.625 µg/mL: MIC ([4]; MSSA isolate 1008, 24FEB06)

Reference: patent publication US20070281992A1, “COMBINATION OF GYRASE B INHIBITORS AND PROTEIN SYNTHESIS INHIBITORS AND USES THEREOF” (priority 2006, published 2007)
